# Key:
# [1] = test system: Human enteroendocrine cell-line (NCI-H716); assay: Measurement of Glucagon Like Peptide-1 (GLP-1) secretion; assay type: cell-based; details: NCI-H716 cells, one hour, with respect to vehicle control
# Method: (C) Measurement of Glucagon Like Peptide-1 (GLP-1):
# Human enteroendocrine cell-line (NCI-H716) were incubated with vehicle or test compounds for one hour. At the end of incubation period, levels of secreted GLP-1 in culture medium were measured by GLP-1 ELISA kit (Millipore). Results are summarized as fold increase in GLP secretion with respect to vehicle control in Table 4.
# human TGR5 [2] = target: T1, human TGR5 (Homo sapiens, UniProt Q8TDU6); assay: cAMP Measurement Assay (Alphascreen); assay type: cell-based; details: cAMP levels, CHO cells transfected with human TGR5, one hour
# T1 construct: host or cells: CHO cells (ATCC)
# T1 sequence (Q8TDU6 1-330): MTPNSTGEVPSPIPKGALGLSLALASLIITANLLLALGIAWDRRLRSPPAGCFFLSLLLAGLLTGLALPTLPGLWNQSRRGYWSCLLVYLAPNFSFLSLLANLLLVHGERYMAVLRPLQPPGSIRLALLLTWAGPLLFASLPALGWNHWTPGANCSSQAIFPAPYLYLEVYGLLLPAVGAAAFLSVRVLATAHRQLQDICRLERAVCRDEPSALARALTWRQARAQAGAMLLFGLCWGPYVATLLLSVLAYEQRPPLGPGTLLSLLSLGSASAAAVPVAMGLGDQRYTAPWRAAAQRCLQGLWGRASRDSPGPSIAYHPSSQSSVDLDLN
# Method: (B) cAMP Measurement Assay:
# CHO cells (ATCC) were transfected with human TGR5 vector (oriGene). Transfected cells were treated with vehicle control or test compounds for one hour and then lysed. Levels of cAMP were measured in cell lysates employing Alphascreen cAMP assay kit (Perkin Elmer) and results were expressed EC50 values which are summarized in Table 3.
# Diabetic Hamster = assay: Single dose efficacy on glucose tolerance (OGTT) in diabetic hamster; assay type: in vivo; details: Mesocricetus auratus, read-out: Decrease in AUC of glucose % change w.r.t. vehicle control group; for inhibition in vivo at 41 mg/kg: single oral dose 41 mg/kg; for inhibition in vivo at 36 mg/kg: single oral dose 36 mg/kg
# Method: i) Evaluation of Single Dose Efficacy of Test Compounds on Glucose Tolerance:
# Thus efficacy can be assessed through the effect of test compounds on lowering of plasma glucose during OGTT through stimulating glucose stimulated insulin secretion.
# The potential of test compounds in lowering of Plasma Glucose was evaluated in Oral glucose tolerance test (OGTT) in Diabetic Hamster Model, where diabetes has been induced by administration of low dose of Streptozotocin (STZ) to the High fat diet (HFD) fed glucose intolerant animals. The diabetic hamsters show impaired glucose stimulated insulin secretion and higher plasma glucose excursions than the normal animals, which remains elevated beyond 2 hrs post glucose load. Thus the animal model can be used for evaluating the potential of test compounds to lower plasma glucose through stimulating glucose stimulated insulin secretion. On the day of study post 6 hrs of fasting, test compounds or vehicle was administered orally at dose volume of 2 ml/kg to the hamsters of the respective treatment groups. Subsequent to dosing, a pre-glucose load blood sample was taken. A glucose load of 40% solution at 5 ml/Kg dose volume was administered orally. Blood samples through retroorbital plexus were taken at 15, 30 60 & 120 min. post glucose load and plasma was separated for glucose measurement. Post glucose load percentage change in plasma glucose and AUC of % change glucose by the treatment was assessed.
# human TGR5 [3] = target: T1, human TGR5; assay: cAMP Responsive Element (CRE)-Reporter Assay; assay type: cell-based; details: luciferase activity relative to vehicle control, five hours, CHO cells transfected with human TGR5 and CRE-luciferase
# Method: (A) cAMP Responsive Element (CRE)-Reporter Assay:
# CHO cells (ATCC) were transfected with human TGR5 (oriGene) and CRE-luciferase reporter vector. Transfected cells were treated with vehicle control or test compounds (Conc 10 μM) for five hours and then lysed. Cell lysates were monitored for luciferase acivity. Increase in luciferase activity is considered as a result of TGR5 activation. Results were expressed as fold induction as compared to vehicle control.
# Results are summarized in Table 2 where, + indicates 1.5-2 fold while ++, +++, ++++ indicate 2-3 fold, 3-4 fold, and >4 fold induction respectively relative to vehicle control when tested at 10 μM concentration.
Compound,fold induction at 10 µM (human TGR5 [3]),also measured
"CN(C(=O)c1c(-c2cccc(C(F)(F)F)c2)nc2ncccn12)c1ccc(F)cc1 [Compound no. 33, N-(4-fluorophenyl)-N-methyl-2-[3-(trifluoromethyl)phenyl]imidazo[1,2-a]pyrimidine-3-carboxamide]",> 4,Fold increase in GLP Release [1]: 1.83 fold; EC50 (human TGR5 [2]): 155 nM; inhibition in vivo at 41 mg/kg (Diabetic Hamster): 20%
"CC(C)N(C(=O)c1c(-c2ccc(F)cc2)nc2ncccn12)c1ccc(Cl)cc1 [Compound no. 65, N-(4-chlorophenyl)-2-(4-fluorophenyl)-N-(propan-2-yl)imidazo[1,2-a]pyrimidine-3-carboxamide]",3 to 4,inhibition in vivo at 41 mg/kg (Diabetic Hamster): 10%
"CN(C(=O)c1c(-c2ccccc2)nc2ncccn12)c1ccc(Cl)cc1 [Compound no. 1, N-(4-chlorophenyl)-N-methyl-2-phenylimidazo[1,2-a]pyrimidine-3-carboxamide]",> 4,EC50 (human TGR5 [2]): 35 nM; inhibition in vivo at 36 mg/kg (Diabetic Hamster): 33%
"CN(C(=O)c1c(-c2cccc(C#N)c2)nc2ncccn12)c1ccc(Cl)cc1 [Compound no. 36, N-(4-chlorophenyl)-2-(3-cyanophenyl)-N-methylimidazo[1,2-a]pyrimidine-3-carboxamide]",2 to 3,inhibition in vivo at 38 mg/kg (Diabetic Hamster; single oral dose 38 mg/kg): 8%
"CN(C(=O)c1c(-c2ccc(F)cc2)nc2ncccn12)c1ccc(F)cc1 [Compound no. 22, N,2-bis(4-fluorophenyl)-N-methylimidazo[1,2-a]pyrimidine-3-carboxamide]",3 to 4,Fold increase in GLP Release [1]: 2.13 fold; inhibition in vivo at 36 mg/kg (Diabetic Hamster): 20%
"CN(C(=O)c1c(-c2ccc3c(c2)OCO3)nc2ncccn12)c1ccc(F)cc1 [Compound no. 28, 2-(1,3-benzodioxol-5-yl)-N-(4-fluorophenyl)-N-methylimidazo[1,2-a]pyrimidine-3-carboxamide]",2 to 3,Fold increase in GLP Release [1]: 2.03 fold; inhibition in vivo at 39 mg/kg (Diabetic Hamster; single oral dose 39 mg/kg): 5%
"COc1ccc(NC(=O)c2c(-c3ccc(F)cc3)nc3ncccn23)c(OC)c1 [compound 34, N-(2,4-dimethoxyphenyl)-2-(4-fluorophenyl)imidazo[1,2-a]pyrimidine-3-carboxamide]",1.5 to 2,–
"CN(C(=O)c1c(-c2ccccc2)nc2ncccn12)c1cccc(Cl)c1 [Compound no. 2, N-(3-chlorophenyl)-N-methyl-2-phenylimidazo[1,2-a]pyrimidine-3-carboxamide]",3 to 4,–
"CN(C(=O)c1c(-c2ccccn2)nc2ncccn12)c1ccc2c(c1)CCC2 [compound 17, N-(2,3-dihydro-1H-inden-5-yl)-N-methyl-2-(pyridin-2-yl)imidazo[1,2-a]pyrimidine-3-carboxamide]",2 to 3,–
"COc1ccc(-c2nc3ncccn3c2C(=O)N(C)c2ccc3c(c2)CCC3)cc1OC [compound 13, N-(2,3-dihydro-1H-inden-5-yl)-2-(3,4-dimethoxyphenyl)-N-methylimidazo[1,2-a]pyrimidine-3-carboxamide]",3 to 4,–
"CN(C(=O)c1c(-c2ccc(F)cc2)nc2ncccn12)c1ccc(F)cc1F [compound 40, N-(2,4-difluorophenyl)-2-(4-fluorophenyl)-N-methylimidazo[1,2-a]pyrimidine-3-carboxamide]",2 to 3,–
"O=C(c1c(-c2ccc(F)cc2)nc2ncccn12)N(c1ccc(Cl)cc1)C1CC1 [compound 136, N-(4-chlorophenyl)-N-cyclopropyl-2-(4-fluorophenyl)imidazo[1,2-a]pyrimidine-3-carboxamide]",3 to 4,–
"CN(C(=O)c1c(-c2ccc(O)cc2)nc2ncccn12)c1ccc(Cl)cc1 [compound 30, N-(4-chlorophenyl)-2-(4-hydroxyphenyl)-N-methylimidazo[1,2-a]pyrimidine-3-carboxamide]",3 to 4,Fold increase in GLP Release [1]: 1.69 fold
"CN(C(=O)c1c(-c2ccc(O)c(F)c2)nc2ncccn12)c1ccc(F)cc1 [compound 42, 2-(3-fluoro-4-hydroxyphenyl)-N-(4-fluorophenyl)-N-methylimidazo[1,2-a]pyrimidine-3-carboxamide]",2 to 3,–
"COc1ccc(N(C)C(=O)c2c(-c3ccc(Cl)cc3)nc3ncccn23)c(OC)c1 [compound 25, 2-(4-chlorophenyl)-N-(2,4-dimethoxyphenyl)-N-methylimidazo[1,2-a]pyrimidine-3-carboxamide]",2 to 3,–
"CN(C(=O)c1c(-c2cccc(C(F)(F)F)c2)nc2ncccn12)c1ccc(Cl)cc1 [compound 31, N-(4-chlorophenyl)-N-methyl-2-[3-(trifluoromethyl)phenyl]imidazo[1,2-a]pyrimidine-3-carboxamide]",3 to 4,–
"CN(C(=O)c1c(Oc2ccc(F)cc2)nc2ncccn12)c1ccc(F)cc1F [Compound no. 46, N-(2,4-difluorophenyl)-2-(4-fluorophenoxy)-N-methylimidazo[1,2-a]pyrimidine-3-carboxamide]",2 to 3,–
"CN(C(=O)c1c(-c2ccc(S(=O)(=O)N(C)C)cc2)nc2ncccn12)c1ccc(F)cc1 [compound 38, 2-[4-(dimethylsulfamoyl)phenyl]-N-(4-fluorophenyl)-N-methylimidazo[1,2-a]pyrimidine-3-carboxamide]",1.5 to 2,–
"COc1ccc(-c2nc3ncccn3c2C(=O)N(C)c2ccc(F)c(Cl)c2)cc1F [compound 45, N-(3-chloro-4-fluorophenyl)-2-(3-fluoro-4-methoxyphenyl)-N-methylimidazo[1,2-a]pyrimidine-3-carboxamide]",> 4,–
"CN(C(=O)c1c(-c2ccc(Cl)c(Cl)c2)nc2ncccn12)c1ccc(Cl)cc1 [compound 14, N-(4-chlorophenyl)-2-(3,4-dichlorophenyl)-N-methylimidazo[1,2-a]pyrimidine-3-carboxamide]",3 to 4,–
"CN(C(=O)c1c(-c2ccc(Cl)cc2)nc2ncccn12)c1ccc(F)cc1 [compound 18, 2-(4-chlorophenyl)-N-(4-fluorophenyl)-N-methylimidazo[1,2-a]pyrimidine-3-carboxamide]",2 to 3,–
"CN(C(=O)c1c(-c2cccc(C#N)c2)nc2ncccn12)c1ccc(F)cc1 [compound 35, 2-(3-cyanophenyl)-N-(4-fluorophenyl)-N-methylimidazo[1,2-a]pyrimidine-3-carboxamide]",2 to 3,–
"CN(C(=O)c1c(-c2cccnc2)nc2ncccn12)c1ccc(Cl)cc1 [compound 20, N-(4-chlorophenyl)-N-methyl-2-(pyridin-3-yl)imidazo[1,2-a]pyrimidine-3-carboxamide]",2 to 3,–
"CN(C(=O)c1c(-c2ccccc2)nc2ncccn12)c1ccc(F)cc1 [compound 26, N-(4-fluorophenyl)-N-methyl-2-phenylimidazo[1,2-a]pyrimidine-3-carboxamide]",2 to 3,–
